Source: US9085555B2, “Complement pathway modulators and uses thereof” (priority 2011, dated 2015)
pIC50: −log10 of the molar value. Read-outs that look alike come from different tables or passages of the source.

Target: Factor D (Homo sapiens (Human), UniProt P00746)
Experiment: biochemical
Format: biochemical

Chain of Factor D (P00746 26-253): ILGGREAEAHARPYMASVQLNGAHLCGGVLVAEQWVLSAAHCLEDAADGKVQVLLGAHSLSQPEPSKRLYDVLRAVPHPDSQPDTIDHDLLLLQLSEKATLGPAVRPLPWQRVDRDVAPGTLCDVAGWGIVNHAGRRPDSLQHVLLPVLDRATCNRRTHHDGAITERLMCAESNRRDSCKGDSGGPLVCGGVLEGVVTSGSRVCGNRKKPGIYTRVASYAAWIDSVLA

[2H]C([2H])([2H])O[C@H]1[C@@H](C(=O)NCc2cccc(Cl)c2F)N(C(=O)Cn2cc(C(C)=O)c3ccccc32)C[C@@H]1F [Example 620, (2S,3S,4S)-1-[2-(3-Acetyl-indol-1-yl)-acetyl]-4-fluoro-3-methoxy-d3-pyrrolidine-2-carboxylic acid 3-chloro-2-fluoro-benzylamide]
pIC50: 7.77

NC(=O)n1cc(NC(=O)N2C[C@@H](N)C[C@H]2C(=O)NCc2ccc(OC(F)(F)F)cc2)c2ccccc21 [Example 46, (2S,4S)-4-Amino-pyrrolidine-1,2-dicarboxylic acid 1-[(1-carbamoyl-1H-indol-3-yl)-amide] 2-(4-trifluoromethoxy-benzylamide)]
pIC50 (read-out: IC50): 4.64

COC(=O)c1ccc2c(C(C)=O)cn(CC(=O)N3[C@@H]4C[C@@H]4C[C@H]3C(=O)NCc3cccc(Cl)c3F)c2c1 [Example 526, 3-Acetyl-1-{2-[(1R,3S,5R)-3-(3-chloro-2-fluoro-benzylcarbamoyl)-2-aza-bicyclo[3.1.0]hex-2-yl]-2-oxo-ethyl}-1H-indole-6-carboxylic acid methyl ester]
pIC50 (read-out: IC50): 7.27

NC(=O)c1nn(CC(=O)N2[C@@H]3C[C@@H]3C[C@H]2C(=O)Nc2cccc(Br)c2F)c2cnccc12 [Example 668, 1-{2-[(1R,3S,5R)-3-(3-Bromo-2-fluoro-phenylcarbamoyl)-2-aza-bicyclo[3.1.0]hex-2-yl]-2-oxo-ethyl}-1H-pyrazolo[3,4-c]pyridine-3-carboxylic acid amide]
pIC50 (read-out: IC50): 7.72

CO[C@H]1[C@@H](C(=O)Nc2cccc(OC(F)(F)F)c2F)N(C(=O)Cn2nc(C(N)=O)c3cc(C)ncc32)C[C@@H]1F [Example 636, 1-{2-[(2S,3S,4S)-4-Fluoro-2-(2-fluoro-3-trifluoromethoxy-phenylcarbamoyl)-3-methoxy-pyrrolidin-1-yl]-2-oxo-ethyl}-5-methyl-1H-pyrazolo[3,4-c]pyridine-3-carboxylic acid amide triflate]
pIC50 (read-out: IC50): 7.89

COC[C@@H](NC(=O)[C@@H]1C[C@H]2C[C@H]2N1C(=O)Nc1cn(C(N)=O)c2ccccc12)c1cccc(Cl)c1F [Example 236, (1R,3S,5R)-2-Aza-bicyclo[3.1.0]hexane-2,3-dicarboxylic acid 2-[(1-carbamoyl-1H-indol-3-yl)-amide] 3-{[(S)-1-(3-chloro-2-fluoro-phenyl)-2-methoxy-ethyl]-amide}]
pIC50 (read-out: IC50): 8.10

COc1cccc2c(C(N)=O)cn(CC(=O)N3C[C@H](F)C[C@H]3C(=O)NCc3cccc(Cl)c3F)c12 [Example 477, 1-{2-[(2S,4R)-2-(3-Chloro-2-fluoro-benzylcarbamoyl)-4-fluoro-pyrrolidin-1-yl]-2-oxo-ethyl}-7-methoxy-1H-indole-3-carboxylic acid amide]
pIC50 (read-out: IC50): 6.20

Cc1cc2c(C(N)=O)nn(CC(=O)N3C[C@H](F)C[C@H]3C(=O)N[C@H](C)c3cccc(Cl)c3F)c2cn1 [Example 691, 1-(2-{(2S,4R)-2-[(R)-1-(3-Chloro-2-fluoro-phenyl)-ethylcarbamoyl]-4-fluoro-pyrrolidin-1-yl}-2-oxo-ethyl)-5-methyl-1H-pyrazolo[3,4-c] pyridine-3-carboxylic acid amide]
pIC50 (read-out: IC50): 7.17

Cc1cc2c(C(N)=O)nn(CC(=O)N3[C@@H]4C[C@@H]4C[C@H]3C(=O)Nc3cccc(OC(F)(F)F)c3F)c2c(C)n1 [Example 717, 1-{2-[(1R,3S,5R)-3-(2-Fluoro-3-trifluoromethoxy-phenylcarbamoyl)-2-aza-bicyclo[3.1.0]hex-2-yl]-2-oxo-ethyl}-5,7-dimethyl-1H-pyrazolo [3,4-c]pyridine-3-carboxylic acid amide]
pIC50 (read-out: IC50): 7.51

CC(=O)c1cn(CC(=O)N2[C@@H]3C[C@@H]3C[C@H]2C(=O)N[C@H](CO)c2cccc(Cl)c2F)c2ncccc12 [Example 613, (1R,3S,5R)-2-[2-(3-Acetyl-pyrrolo[2,3-b]pyridin-1-yl)-acetyl]-2-aza-bicyclo[3.1.0]hexane-3-carboxylic acid [(S)-1-(3-chloro-2-fluoro-phenyl)-2-hydroxy-ethyl]-amide]
pIC50 (read-out: IC50): 6.67

CC(=O)c1cn(CC(=O)N2[C@@H]3C[C@@H]3C[C@H]2C(=O)NCc2cccc(Cl)c2F)c2cc(O)ccc12 [Example 584, (1R,3S,5R)-2-[2-(3-Acetyl-6-hydroxy-indol-1-yl)-acetyl]-2-aza-bicyclo[3.1.0]hexane-3-carboxylic acid 3-chloro-2-fluoro-benzylamide]
pIC50 (read-out: IC50): 7.42

NC(=O)n1cc(NC(=O)N2C[C@@H](N)C[C@H]2C(=O)NCc2ccc3ccccc3c2)c2ccccc21 [Example 63, (2S,4S)-4-Amino-pyrrolidine-1,2-dicarboxylic acid 1-[(1-carbamoyl-1H-indol-3-yl)-amide] 2-[(naphthalen-2-ylmethyl)-amide]]
pIC50 (read-out: IC50): 4.94

CC[C@H](C)[C@H](NC(=O)[C@@H]1C[C@H](N)CN1C(=O)Nc1cn(C(N)=O)c2ccccc12)C(N)=O [Example 99, (2S,4S)-4-Amino-pyrrolidine-1,2-dicarboxylic acid 1-[(1-carbamoyl-1H-indol-3-yl)-amide] 2-[((1S,2S)-1-carbamoyl-2-methyl-butyl)-amide]]
pIC50 (read-out: IC50): 4.63

C[C@@H](CNC(=O)[C@@H]1C[C@H](N)CN1C(=O)Nc1cn(C(N)=O)c2ccccc12)c1ccccc1 [Example 84, (2S,4S)-4-Amino-pyrrolidine-1,2-dicarboxylic acid 1-[(1-carbamoyl-1H-indol-3-yl)-amide] 2-[((R)-2-phenyl-propyl)-amide]]
pIC50 (read-out: IC50): 5.22

CC(=O)n1cc(NC(=O)N2[C@@H]3C[C@@H]3C[C@H]2C(=O)N[C@H](CO)c2cccc(Cl)c2F)c2ccccc21 [Example 129, (1R,3S,5R)-2-Azabicyclo[3.1.0]hexane-2,3-dicarboxylic acid 2-[(1-acetyl-1H-indol-3-yl)-amide] 3-{[(S)-1-(3-chloro-2-fluoro-phenyl)-2hydroxy-ethyl]-amide}]
pIC50 (read-out: IC50): 8.40

NC(=O)n1cc(NC(=O)N2CCS[C@H]2C(=O)NCc2cccc(Cl)c2)c2ccccc21 [Example 174, (S)-Thiazolidine-2,3-dicarboxylic acid 3-[(1-carbamoyl-1H-indol-3-yl)-amide] 2-(3-chloro-benzylamide)]
pIC50 (read-out: IC50): 7.46

C[C@@]1(F)C[C@@H](C(=O)NCc2cccc(Cl)c2F)N(C(=O)Cn2cc(C(=O)C(F)(F)F)c3ccccc32)C1 [Example 554, (2S,4R)-4-Fluoro-4-methyl-1-{2-[3-(2,2,2-trifluoro-acetyl)-indol-1-yl]-acetyl}-pyrrolidine-2-carboxylic acid 3-chloro-2-fluoro-benzylamide]
pIC50 (read-out: IC50): 7.36

CNC(=O)n1cc(NC(=O)N2[C@@H]3C[C@@H]3C[C@H]2C(=O)N[C@H](CN(C)C)c2cccc(Cl)c2F)c2ccccc21 [Example 289, (1R,3S,5R)-2-Aza-bicyclo[3.1.0]hexane-2,3-dicarboxylic acid 3-{[(S)-1-(3-chloro-2-fluoro-phenyl)-2-dimethylamino-ethyl]-amide} 2-[(1-methylcarbamoyl-1H-indol-3-yl)-amide]]
pIC50 (read-out: IC50): 6.26

CC(=O)n1cc(NC(=O)N2C[C@@](F)(CN)C[C@H]2C(=O)NCc2cccc(Cl)c2F)c2ccccc21 [Example 412, 2S,4S)-4-Aminomethyl-4-fluoro-pyrrolidine-1,2-dicarboxylic acid 1-[(1-acetyl-1H-indol-3-yl)-amide]2-(3-chloro-2-fluoro-benzylamide]
pIC50 (read-out: IC50): 7.85

NC(=O)c1nn(CC(=O)N2[C@@H]3C[C@@H]3C[C@H]2C(=O)Nc2cccc(OC(F)F)c2F)c2ccccc12 [Example 729, 1-{2-[(1R,3S,5R)-3-(3-Difluoromethoxy-2-fluoro-phenylcarbamoyl)-2-aza-bicyclo[3.1.0]hex-2-yl]-2-oxo-ethyl}-1H-indazole-3-carboxylic acid amide]
pIC50 (read-out: IC50): 7.21

NC(=O)n1cc(NC(=O)N2C[C@@H](CO)C[C@H]2C(=O)NCc2cccc(Br)c2F)c2ccccc21 [Example 355, (2S,4S)-4-Hydroxymethyl-pyrrolidine-1,2-dicarboxylic acid 2-(3-bromo-2-fluoro-benzylamide) 1-[(1-carbamoyl-1H-indol-3-yl)-amide]]
pIC50 (read-out: IC50): 6.98

NC(=O)n1cc(CC(=O)N2[C@@H]3C[C@@H]3C[C@H]2C(=O)NCc2cccc(Cl)c2F)c2ccc(CCO)cc21 [Example 474, 3-{2-[(1R,3S,5R)-3-(3-Chloro-2-fluoro-benzylcarbamoyl)-2-aza-bicyclo[3.1.0]hex-2-yl]-2-oxo-ethyl}-6-(2-hydroxy-ethyl)-indole-1-carboxylic acid amide]
pIC50 (read-out: IC50): 7.02

NC(=O)n1cc(NC(=O)N2C[C@@H](N)C[C@H]2C(=O)NCc2ccc(Cl)c(Cl)c2)c2ccccc21 [Example 61, (2S,4S)-4-Amino-pyrrolidine-1,2-dicarboxylic acid 1-[(1-carbamoyl-1H-indol-3-yl)-amide] 2-(3,4-dichloro-benzylamide)]
pIC50 (read-out: IC50): 5.15

CC(=O)c1nn(CC(=O)N2[C@@H]3C[C@@H]3C[C@H]2C(=O)Nc2cccc(OC(F)(F)F)c2F)c2ncccc12 [Example 711, (1R,3S,5R)-2-[2-(3-Acetyl-pyrazolo[3,4-b]pyridin-1-yl)-acetyl]-2-aza-bicyclo[3.1.0]hexane-3-carboxylic acid (2-fluoro-3-trifluoromethoxy-phenyl)-amide]
pIC50 (read-out: IC50): 7.15

CC(=O)c1cn(CC(=O)N2[C@@H]3C[C@@H]3C[C@H]2C(=O)NCc2cccc(Cl)c2F)c2cc(CC(=O)O)ccc12 [Example 596, (3-Acetyl-1-{2-[(1R,3S,5R)-3-(3-chloro-2-fluoro-benzylcarbamoyl)-2-aza-bicyclo[3.1.0]hex-2-yl]-2-oxo-ethyl}-1H-indol-6-yl)-acetic acid]
pIC50 (read-out: IC50): 7.02

CC(=O)c1cn(CC(=O)N2[C@@H]3C[C@@H]3C[C@H]2C(=O)NCc2cccc(Cl)c2F)c2nc(C(=O)O)ccc12 [Example 704, 3-Acetyl-1-{2-[(1R,3S,5R)-3-(3-chloro-2-fluoro-benzylcarbamoyl)-2-aza-bicyclo[3.1.0]hex-2-yl]-2-oxo-ethyl}-1H-pyrrolo[2,3-b]pyridine-6-carboxylic acid]
pIC50 (read-out: IC50): 7.64

COCCN[C@H]1C[C@@H](C(=O)NCc2cccc(Cl)c2F)N(C(=O)Nc2cn(C(N)=O)c3ccccc23)C1 [Example 426, 2S,4S)-4-(2-Methoxy-ethylamino)-pyrrolidine-1,2-dicarboxylic acid 1-[(1-carbamoyl-1H-indol-3-yl)-amide]2-(3-chloro-2-fluoro-benzylamide]
pIC50 (read-out: IC50): 6.36
